Data set [1] deals with TLM1 cells. Kind of data set: X-ray radiation in combination with compound, propidium iodide dead cells, ratio of corrected AUC. The class given is cell-based, canine. Particulars: for Potency of X-ray radiations in combination with compound (in words): TLM1. As to the method: (§1) Canine melanoma TLM-1 cells are maintained in DMEM medium supplemented with GlutaMAX™, 10% fetal bovine serum, 1× Hepes and 1% penicillin-streptomycin.
TLM-1 cells were seeded with the BioTek MicroFlo™ dispenser in μClear® black 384-well plates (Greiner) at the density of 20,000 cells/mL in 50 μL. Compounds for pre-treatment were added 2 h after the seeding, using an Echo 550 (Labcyte). The next day, cells were washed five times with 40 μL media without phenol red with a plate washer (Hydrospeed, Tecan). Cells were irradiated with 4, 6, 8, 12, 16, 20 and 24 Gray (Gy). […] This step was repeated every 72 h after radiation. Plates were incubated at 37° C. and 5% CO2. […] 4 images per well were collected. Images were analyzed with Columbus software (Perkin Elmer). In this system we used predefined building blocks to measure different parameters on nuclei detected. We applied a threshold based on propidium iodide intensity in nuclei of controls to select and count dead cells. By dividing the number of dead cells by the number of nuclei detected we obtained the percentage of dead cells. AUC were determined in one experiment with triplicate incubates on percentage of cells labelled with propidium iodide and were corrected by the percentage of cells labelled with propidium iodide at 0 Gy. Ratio of AUC corrected was determined as followed: Activity=(Area of the dose-concentration curve of cytotoxic agent combined with one concentration of compound corrected by the effect of the compound alone at 0Gy)/(Area of the dose-concentration curve of radiation alone corrected by the effect of the vehicle at 0Gy).

In data set [2] the test system is RPMI 8226 cells. Kind of data set: Epoxomicin (EPX) in combination with compound 3, Annexin V/PI flow cytometry. The data set is classed as cell-based, human. The settings on record: RPMI 8226 (FIG. 1A), compound at 7.5 μM, 15 μM and 30 μM. As to the method: (§2) RPMI 8226 and MOPC315.BM cells were cultured in RPMI 1640 medium supplemented with L-glutamine, non-essential amino acids, 2-mercaptoethanol and 10% fetal calf serum.
(§3) Cells were seeded in 24-well culture plates at 150,000 cells/well/mL. […] Cells were treated with protease inhibitors for 24 and 48 hours before analysis for apoptosis and cell death by flow cytometry. The cells were centrifuged at 300×g for 5 minutes and washed with cold FACS buffer (PBS 1× with 2 mM EDTA and 0.5% BSA. Then the cells were resuspended in Annexin V binding buffer (BioLegend) at a concentration of 10^6 cells/mL, and 100 μL of each sample was transferred to a 5 mL FACS tube. 5 μL of Annexin V-FITC Ab (BioLegend) and 5 μL of propidium iodide (BioLegend) were added to each sample and incubated 15 min at RT. Finally, 400 μL of Annexin V binding buffer was added to each tube and the cells were analyzed using BD FACSCanto or BD Fortessa machines within an hour. Annexin+ but PI− cells were identified as apoptotic and Annexin+ PI+ as dead cells.
A general note: Flow cytometry measures light scatter and fluorescence of single cells or particles in a stream.

The subject of data set [3] is MOPC315.BM cells. The description is as above. The data set is classed as cell-based, murine. Particulars: MOPC315.BM (FIG. 1B), compound at 7.5 μM, 15 μM and 30 μM. The method, then:
as §2, §3

Data set [4] relates to TLM1 cells. Nature of the data set: UV-C radiation in combination with compound, ratio of % propidium iodide labelled cells. The class given is cell-based, canine. The settings on record: for Potency of UV-C radiations in combination with compound (in words): TLM1. As to the method:
as §1
Plates were incubated at 37° C. and 5% CO2. […] 4 images per well were collected. Images were analyzed with Columbus software (Perkin Elmer). In this system we used predefined building blocks to measure different parameters on nuclei detected. We applied a threshold based on propidium iodide intensity in nuclei of controls to select and count dead cells. By dividing the number of dead cells by the number of nuclei detected we obtained the percentage of dead cells.

Data set [5] concerns MCF7 cells. Kind of data set: CFZ potency increase, ratio of CC50 of CFZ alone / with compound. The data set is classed as cell-based, human. The settings on record: MCF7, compound at 15 μM. As to the method:
Human epithelial MCF7 cells (mammary gland adenocarcinoma) are maintained in EMEM medium supplemented with GlutaMAX™, 10% fetal bovine serum, 0.01 mg insulin and 1% penicillin-streptomycin.
(§4) We developed a cell-based, high content assay allowing the rapid detection and quantification of apoptotic cells. Caspase-3/7 activity was detected in real-time using the NucView™ 488 Caspase-3 substrate (Biotium), where the caspase-3/7 substrate peptide sequence DEVD is attached to a nucleic acid dye. The NucView™ 488 reagent crosses the plasma membrane to enter the cytoplasm, where the dye is unable to bind to DNA and remains non-fluorescent. Once the substrate has been cleaved by activated caspase-3/7 in apoptotic cells, the high-affinity DNA dye is released and migrates to the cell nucleus to stain the nucleus with a bright green fluorescence. All cell nuclei were also labeled with Hoechst 33342 (Ozyme).
(§5) For HeLa and MCF7 cells, briefly, cells were seeded in 384-microtiter well plate (1500 HeLa cells or 5000 MCF7 cells in 40 μL full medium per well) and let to attach overnight. Then the compound of the invention and the RE stressor were transferred to the cell culture plate using an Echo555 liquid handler (Labcyte) and 30 μL medium containing NucView™ and Hoechst 33342 were added. Final NucView™ 488 and Hoechst 33342 concentrations were 1 μM and 20 ng/mL, respectively. DMSO content was maintained at 0.2%. The microplates were incubated at 37° C. and 5% CO2 in an automated LiCONiC STR240 UB cell incubator, and images were acquired at various times at 405 nm and 488 nm with the high-resolution automated confocal microscope INCell 6000 (GE). Four fields per well were read with the 20× objective in a confocal mode. The BioCel workstation was managed by VWorks automation control software (Agilent).
(§6) For all cells, Columbus software (Perkin) was used for image quantification and analysis. First, Hoechst 33342 staining was used for an automated detection of nuclei, in which the mean fluorescence intensity for NucView™ 488 was quantified. Inspection of control cells at initial time was used to set a threshold level of NucView™ 488 fluorescence to separate non apoptotic cells from apoptotic cells. Finally, for each well, the result was expressed as percentage of apoptotic cells in the total cell population. CC50 values were calculated from concentration-response curves by a nonlinear regression analysis at four parameters using Excel Fit or GraphPad Prim softwares.
(§7) Activity=(% of apoptotic cells with cytotoxic agent in combination with compound of the invention)/(% of apoptotic cells with cytotoxic agent alone). • Ratio of CC50: The CC50 of the cytotoxic agent was calculated in absence and in presence of a compound of the invention.
(§8) Activity=(CC50 of agent alone)/(CC50 of agent with compound). • Ratio of AUC. Activity=(Area of the dose-concentration curve of cytotoxic agent combined with one concentration of compound)/(Area of the dose-concentration curve of cytotoxic agent alone). (Lehar J. et al, 2008 (molecular systems biology 4:215)).

Data set [6] deals with OPM2 cells. Described as above. The class given is cell-based, human. The gist of the method: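 OPM2 cells (12,000/well, 0.2% DMSO) treated with compound plus carfilzomib, with NucView 488 caspase-3/7 substrate (1 μM) and Hoechst 33342, 37 °C; confocal imaging over time gives % apoptotic cells. CFZ CC50 from 4-parameter fits alone and with compound; activity = CC50 alone / CC50 with compound.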

Data set [7] relates to HeLa cells. The description is as above. The data set is classed as cell-based, human. Particulars: compound at 7.5 μM.
Excerpt: Human HeLa cells (uterine cervical carcinoma) are maintained in DMEM medium supplemented with GlutaMAX™, 10% fetal bovine serum and 1% penicillin-streptomycin.
as §4, §5, §6, §7, §8

Where [8] appears, read: OPM2, compound at 7.5 μM (Table 5).
The mark [9] stands for this setting: OPM2, compound at 7.5 μM (Table 6).

Data on nine molecules can be found in patent US20220073475A1, “5-MEMBERED HETEROARYL COMPOUNDS CONTAINING A HYDROXAMATE MOIETY AND THEIR USE” (UNIVERSITE DE LILLE, priority 2019, published 2022).

As a reminder, the melting point is the temperature, or range, at which the solid turns liquid. In turn, `COc1ccc(C(=O)NCc2cn([C@@H](CC(=O)NO)Cc3ccc4ccccc4c3)nn2)cc1` [Compound 2] registered a melting point of 178.3 to 179.6 °C.
In the case of `O=C(C[C@@H](Cc1ccc2ccccc2c1)n1cc(CNC(=O)c2ccc(F)cc2)nn1)NO` [Compound 3, 4-Fluoro-N-[1-(R-2-hydroxycarbamoyl-1-naphthalen-2-ylmethyl-ethyl)-1H-[1,2,3]-triazol-4-ylmethyl]-benzamide], the “Potency of X-ray radiations in combination with compound (in words)” value in data set [1] is “increase the potency”. Further, the “Cytotoxicity of epoxomicin in combination with compound” value in data set [2] and in data set [3] was “increased” in each case. The “Potency of UV-C radiations in combination with compound (in words)” value in data set [4] is given as “increase the potency”.
Consider `Cc1cc(C(=O)NCc2cn([C@@H](CC(=O)NO)Cc3ccc4ccccc4c3)nn2)ccc1F` [Compound 80, 4-fluoro-N-[[1-[(1R)-3-(hydroxyamino)-1-(2-naphthylmethyl)-3-oxo-propyl]triazol-4-yl]methyl]-3-methyl-benzamide], for which the “Potency of X-ray radiations in combination with compound (in words)” value in data set [1] was “increase the potency”. The “Activity: ratio of corrected AUC of X-ray radiation in combination with compound / corrected AUC of X-ray radiation alone” value in data set [1] (TLM1, compound at 30 μM) is 2.7. The “Activity: ratio (CC50 of CFZ alone)/(CC50 of CFZ in combination with compound of the invention)” value is 2.4 in data set [5], 2.2 in data set [6] (setting [8]), 2.2 in data set [6] (setting [9]) and 3.6 in data set [7]. In addition, the “Potency of UV-C radiations in combination with compound (in words)” value in data set [4] is on record as “increase the potency”. Further, the “Activity: ratio of percentage of cells labelling with propidium iodide, compound vs vehicle” value in data set [4] (TLM1, 15 μM compound 24 h before and just after UV-C, 48 h after UV-C at 400 J/m^2, mean of three experiments) was determined as 2.3.
The molecule `O=C(C[C@@H](Cc1ccc2ccccc2c1)n1cc(CNC(=O)CCc2ccccc2)nn1)NO` [Compound 10, (R)—N-Hydroxy-4-naphthalen-2-yl-3-{4-[(3-phenyl-propionylamino)-methyl]-[1,2,3]triazol-1-yl}-butyramide] gave a melting point of 150 to 151.4 °C.
With `Cc1ccc(S(=O)(=O)NCc2cn([C@@H](CC(=O)NO)Cc3ccc4ccccc4c3)nn2)cc1` [Compound 5, (R)—N-Hydroxy-4-naphthalen-2-yl-3-{4-[(toluene-4-sulfonylamino)-methyl]-[1,2,3]triazol-1-yl}-butyramide], the melting point is 115.8 to 117.2 °C.
Still for that read-out and setting: to `O=C(C[C@@H](Cc1ccc2ccccc2c1)n1cc(CNC(=O)c2ccc(C(F)(F)F)cc2)nn1)NO` [Compound 4, N-[1-(R-2-Hydroxycarbamoyl-1-naphthalen-2-ylmethyl-ethyl)-1H-[1,2,3]triazol-4-ylmethyl]-4-trifluoromethyl-benzamide] belongs 198.9 to 200.4 °C.
`O=C(C[C@@H](Cc1ccc2ccccc2c1)n1nncc1CNC(=O)c1ccccc1)NO` [Compound 12, (R)—N-[3-(1-Hydroxycarbamoylmethyl-2-naphthalen-2-yl-ethyl)-3H-[1,2,3]triazol-4-ylmethyl]-benzamide]: the “Activity: ratio (CC50 of CFZ alone)/(CC50 of CFZ in combination with compound of the invention)” value in data set [5] is listed as 1.6; in data set [6] (setting [8]) it was 1.2; in data set [6] (setting [9]), 1.2; in data set [7], 2.4.
The molecule `O=C(C[C@@H](Cc1ccc2ccccc2c1)n1cc(CNS(=O)(=O)c2ccccc2)nn1)NO` [Compound 7, (R)-3-[4-(Benzenesulfonylamino-methyl)-[1,2,3]triazol-1-yl]-N-hydroxy-4-naphthalen-2-yl-butyramide] yielded a melting point of 137.4 to 138.8 °C.
`O=C(C[C@@H](Cc1ccc2ccccc2c1)n1cc(CNC(=O)c2ccccc2)nn1)NO` [Compound 1, N-[1-((R)-2-Hydroxycarbamoyl-1-naphthalen-2-ylmethyl-ethyl)-1H-[1,2,3]triazol-4-ylmethyl]-benzamide] gave a melting point of 192.8 to 194 °C.
